Results on 27 compounds are retold here after paper PMC12519464, “Dual-Site Inhibition of SARS-CoV‑2 RNA-Dependent RNA Polymerase by Small Molecules Able to Block Viral Replication Identified through a Computer-Aided Drug Discovery Approach” (ACS Infectious Diseases, 2025).

This assay has as its target SARS-CoV-2 nsp12/7/8 (RTC) complex (Severe acute respiratory syndrome coronavirus 2, UniProt P0DTD1). Description: biochemical. In kind it is biochemical.
The mark [1] stands for this setting: primer-extension PAGE assay, 150 nM RTC, 5% DMSO, 30 min preincubation at 37 °C, mean and SD of at least 3 independent experiments.
Setting [2] is: read-out: IC50: compound concentration required to inhibit by 50% the SARS-CoV-2 RTC enzymatic activity.

Read-outs that look alike come from different tables or passages of the source.

`CCOC(=O)N[C@@H]1CC[C@@H]2[C@@H](C1)C[C@H]1C(=O)O[C@H](C)[C@H]1[C@H]2/C=C/c1ccc(-c2cccc(F)c2)cn1` [Vorapaxar, reference compound] showed an IC50 greater than 100 µM.

For the compound `Cc1cnc(C(=O)N[C@H]2CCCCC/C=C\[C@@H]3C[C@@]3(C(=O)NS(=O)(=O)C3CC3)NC(=O)[C@@H]3C[C@@H](Oc4nc5ccccc5c5ccccc45)CN3C2=O)cn1` [Paritaprevir, reference compound], the IC50 under setting [1] was found to be 42.2 ± 9.97 µM.

As for `CC(C)(O)CC[C@H]1OC(C)(C)O[C@]1(C)[C@H]1CC[C@@]2(O)C3=CC(=O)[C@@H]4C[C@H]5OC(C)(C)O[C@H]5C[C@]4(C)[C@H]3CC[C@]12C` [Ecdysterone 2,3:20,22-diacetonide], under setting [2], the IC50 is greater than 100 µM.

For `Cc1cc(Nc2ncnc3ccc(NC4=NC(C)(C)CO4)cc23)ccc1Oc1ccn2ncnc2c1` [Tucatinib, reference compound], the IC50 under setting [1] was greater than 100 µM.

Regarding `CC1(C)CC[C@]2(C(=O)O)CC[C@]3(C)C(=CC[C@@H]4[C@@]5(C)CC[C@H](O[C@@H]6O[C@H](C(=O)O)[C@@H](O[C@@H]7O[C@@H](CO)[C@H](O)[C@H]7O)[C@H](O)[C@H]6O)C(C)(C)[C@@H]5CC[C@]43C)[C@@H]2C1` [Narcissiflorine], the IC50 under setting [2] stood at 17.2 ± 5.96 µM.

With `C=C(C)[C@@H]1CC[C@]2(C)CC[C@]3(C)[C@H](CC[C@@H]4[C@@]5(C)CC[C@H](OC(C)=O)C(C)(C)[C@@H]5CC[C@]43C)[C@@H]12` [Lupeol Acetate], the IC50 under setting [2] was greater than 100 µM.

Compound `C[C@]1(O)C[C@@H](c2nc(-c3ccc4ccc(-c5ccccc5)nc4c3)c3c(N)nccn32)C1` [Linsitinib, reference compound] registered an IC50 greater than 100 µM.

On to `C[C@H]1[C@H](C)CC[C@]2(C(=O)O)CC[C@]3(C)C(=CC[C@@H]4[C@@]5(C)CC[C@H](O)C(C)(C)[C@@H]5CC[C@]43C)[C@H]12` [Ursolic acid, reference compound], for which the IC50 was greater than 100 µM.

`Cc1ccc(C(=O)NNC(=O)c2c(C)cccc2Cl)cc1C#Cc1cnc2ccccc2c1` [Vodobatinib, reference compound] registered an IC50 under setting [1] greater than 100 µM.

In turn, `CC(C)=CCC[C@](C)(O[C@@H]1O[C@H](CO)[C@@H](O)[C@H](O)[C@H]1O)[C@H]1CC[C@]2(C)[C@@H]1[C@H](O)C[C@@H]1[C@@]3(C)CC[C@H](O)C(C)(C)[C@@H]3[C@@H](O)C[C@]12C` [Ginsenoside F1] registered an IC50 greater than 100 µM.

For `CC(C)C1=CC(=O)[C@](C)([C@H]2[C@H](O)C[C@@]3(C)[C@@H]4CC=C5[C@@H](CC[C@@H](O[C@@H]6OC[C@@H](O)[C@H](O)[C@H]6O[C@@H]6O[C@@H](C)[C@H](O)[C@@H](O)[C@H]6O)C5(C)C)[C@]4(C)C(=O)C[C@]23C)O1` (racemic) [Picfeltarracemin Ia], the IC50 is greater than 100 µM.

For the compound `CC1(C)CC[C@]2(NC(=O)C(C)(F)F)CC[C@]3(C)[C@H](C(=O)C=C4[C@@]5(C)C=C(C#N)C(=O)C(C)(C)[C@@H]5CC[C@]43C)[C@@H]2C1` [Omaveloxolone, reference compound], the IC50 under setting [1] was 13 ± 4.28 µM.

In the case of `C[C@@H]1CC[C@@]2(OC1)O[C@H]1C[C@H]3[C@@H]4CC[C@@H]5C[C@@H](O)CC[C@]5(C)[C@H]4CC[C@]3(C)[C@H]1[C@@H]2C` [Smilagenin, reference compound], under setting [2], the IC50 was greater than 100 µM.

`CC1(C)[C@H](OC(=O)c2ccccc2)CC[C@]2(C)C3=C([C@@H](O)C[C@@H]12)[C@@]1(C)CC[C@@]2(C)CC[C@@](C)(COC(=O)c4ccccc4)C[C@H]2[C@]1(C)CC3` [3,29-Dibenzoyl Rarounitriol]: under setting [2], the IC50 was greater than 100 µM.

As for `CC1(C)[C@@H](O)CC[C@]2(C)[C@H]3C(=O)C=C4[C@@H]5C[C@@](C)(C(=O)O)CC[C@]5(C)CC[C@@]4(C)[C@]3(C)CC[C@@H]12` [Enoxolone, reference compound], the IC50 was 35.5 ± 4.61 µM.

`CC1(C)[C@@H](OC(=O)CCC(=O)O)CC[C@]2(C)[C@H]3C(=O)C=C4[C@@H]5C[C@@](C)(C(=O)O)CC[C@]5(C)CC[C@@]4(C)[C@]3(C)CC[C@@H]12` [Carbenoxolone, reference compound] had an IC50 of 55.8 ± 8.66 µM.

As for `CC(C)[C@@H](NC(=O)C1(c2ccccc2)CCN(C(=O)OC(C)(C)C)CC1)C(=O)N[C@@H](C(=O)O)c1ccccc1` [(2R)-[(N-{[1-(tert-butoxycarbonyl)-4-phenylpiperidin-4-yl]carbonyl}-D-valyl)amino](phenyl)ethanoic acid], the IC50 under setting [2] was greater than 100 µM.

Consider `Cc1ccc(F)cc1C(=O)Nc1ccc(C(=O)N2Cc3cccn3Cc3ccccc32)c(Cl)c1` [Lixivaptan, reference compound], for which the IC50 under setting [1] was greater than 100 µM.

On to `C[C@H](CC[C@@H](O[C@@H]1O[C@H](CO)[C@@H](O)[C@H](O)[C@H]1O)C(C)(C)O)[C@H]1CC[C@@]2(C)[C@@H]3CC=C4[C@@H](CC[C@H](O[C@@H]5O[C@H](CO)[C@@H](O)[C@H](O)[C@H]5O)C4(C)C)[C@]3(C)[C@H](O)C[C@]12C` [Mogroside IIe], for which the IC50 under setting [2] is greater than 100 µM.

Turning to `CC(=O)c1nn(CC(=O)N2C[C@H](F)C[C@H]2C(=O)Nc2cccc(Br)n2)c2ccc(-c3cnc(C)nc3)cc12` [Danicopan, reference compound], the IC50 is greater than 100 µM.

For `C[C@@H]1CC[C@@]2(OC1)O[C@H]1C[C@H]3[C@@H]4CC=C5C[C@@H](O[C@@H]6O[C@H](CO)[C@@H](O)[C@H](O)[C@H]6O[C@@H]6O[C@@H](C)[C@H](O)[C@@H](O)[C@H]6O)CC[C@]5(C)[C@H]4CC[C@]3(C)[C@@]1(O)[C@@H]2C` [(2S,3R,4R,5R,6S)-2-[(2R,3R,4S,5S,6R)-4,5-dihydroxy-6-(hydroxymethyl)-2-[(1R,2S,4S,5'R,6R,7S,8S,9S,12S,13R,16S)-8-hydroxy-5',7,9,13-tetramethylspiro[5-oxapentacyclo[10.8.0.02,9.04,8.013,18]icos-18-ene-6,2'-oxane]-16-yl]oxyoxan-3-yl]oxy-6-methyloxane-3,4,5-triol], under setting [2], the IC50 was greater than 100 µM.

With `O=C(Nc1cccc(C(=O)O)c1)/C(=C\c1ccccc1)NC(=O)c1ccc(NC(=O)c2ccccc2)cc1` [3-[[(E)-2-[(4-benzamidobenzoyl)amino]-3-phenylprop-2-enoyl]amino]benzoic acid], under setting [2], the IC50 was 85.7 ± 0.62 µM.

For `CC1(C)CC[C@]2(C(=O)O[C@@H]3O[C@H](CO)[C@@H](O)[C@H](O)[C@H]3O)CC[C@]3(C)C(=CC[C@@H]4[C@@]5(C)CC[C@H](O[C@@H]6O[C@H](C(=O)O)[C@@H](O)[C@H](O)[C@H]6O[C@@H]6OC[C@@H](O)[C@H](O)[C@H]6O)C(C)(C)[C@@H]5CC[C@]43C)[C@@H]2C1` [Pseudoginsenoside Rt1], the IC50 was 49.3 ± 5.86 µM.

Consider `CC(C)=CCc1c(-c2ccc(O)cc2O)oc2c([C@H]3C=C(C)C[C@@H](c4ccc(O)cc4O)[C@@H]3C(=O)c3ccc(O)cc3O)c(O)cc(O)c2c1=O` [Kuwanon G], for which, under setting [2], the IC50 was determined as 41 ± 6.18 µM.

On to `CC1(C)CC[C@]2(C(=O)O)[C@H](O)C[C@]3(C)C(=CC[C@@H]4[C@@]5(C)CC[C@H](O)[C@@](C)(C=O)[C@@H]5CC[C@]43C)[C@@H]2C1` [Quillaic acid], for which the IC50 turned out to be 83.9 ± 9.31 µM.

For the compound `C[C@H]1[C@H](C)CC[C@]2(C(=O)O)CC[C@]3(C)C(=CC[C@@H]4[C@@]5(C)C[C@@H](O)[C@H](O)[C@@](C)(CO)[C@@H]5[C@H](O)C[C@]43C)[C@H]12` [Madecassic Acid], the IC50 is greater than 100 µM.

`CC(C)Oc1ccc(-c2nn([C@@H](C)c3oc4ccc(F)cc4c(=O)c3-c3cccc(F)c3)c3ncnc(N)c23)cc1F` [Umbralisib, reference compound]: the IC50 was greater than 100 µM.
